Several values for one entry are separate records, joined by “and”; a condition that tells them apart may be missing. Identical values can stand only once.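 Tested at 5 concentrations; 48 h exposure; 96-well plates; endpoints linearly interpolated, else capped at highest concentration. At the GI50, growth is halved. Definition used: TGI = concentration required for complete inhibition of growth.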
Legend:
Assay in all cases: NCI tumour cell line growth inhibition, 48 h
[1] = test system: UACC-257 melanoma
[2] = test system: OVCAR-8 ovarian
[3] = test system: SW-620 colon
[4] = test system: NCI-H226 lung
[5] = test system: HCT-15 colon
[6] = test system: SNB-19 CNS
[7] = test system: A549 NSCLC
[8] = test system: 786-0 renal
[9] = test system: UO-31 renal
[10] = test system: DLD-1 colon
[11] = test system: LOX IMVI melanoma
[12] = test system: ACHN renal
[13] = test system: SNB-75 CNS
[14] = test system: SK-MEL-2 melanoma
[15] = test system: SF-295 CNS
[16] = test system: KM12 colon
[17] = test system: NCI-H522 lung
[18] = test system: EKVX NSCLC
[19] = test system: HOP-62 NSCLC
[20] = test system: HL-60(TB) leukemia
[21] = test system: M19-MEL melanoma
[22] = test system: SK-OV-3 ovarian
[23] = test system: NCI-H23 lung
[24] = test system: OVCAR-5 ovarian
[25] = test system: UACC-62 melanoma
[26] = test system: HOP-18 NSCLC
[27] = test system: MOLT-4 leukemia
[28] = test system: LXFL 529 NSCLC
[29] = test system: SF-268 CNS
[30] = test system: SNB-78 CNS
[31] = test system: HCC-2998 colon
[32] = test system: SR leukemia
[33] = test system: TK-10 renal
[34] = test system: COLO 205 colon
[35] = test system: RXF 393 renal
[36] = test system: SF-539 CNS
[37] = test system: SK-MEL-5 melanoma
[38] = test system: K-562 leukemia
[39] = test system: IGROV1 ovarian
[40] = test system: HCT-116 colon
[41] = test system: DMS 114 small cell lung
[42] = test system: NCI-H460 lung
[43] = test system: CAKI-1 renal
[44] = test system: KM20L2 colon
[45] = test system: U251 CNS
[46] = test system: SN12C renal
[47] = test system: HT29 colon
[48] = test system: SK-MEL-28 melanoma
[49] = test system: CCRF-CEM leukemia
[50] = test system: MALME-3M melanoma
[51] = test system: RPMI-8226 leukemia
[52] = test system: OVCAR-3 ovarian
[53] = test system: OVCAR-4 ovarian
[54] = test system: M14 melanoma
[55] = test system: HOP-92 NSCLC
[56] = test system: A498 renal
[57] = test system: DMS 273 small cell lung
[58] = test system: BT-549 breast
[59] = test system: PC-3 prostate
[60] = test system: MDA-N
[61] = test system: MDA-MB-231 breast
[62] = test system: T-47D breast
[63] = test system: DU-145 prostate
[64] = test system: NCI/ADR-RES ovarian
[65] = test system: HS 578T breast
[66] = test system: MCF7 breast

COc1cc2cccc(N=Cc3ccccc3Cl)c2cc1OC
TGI [1]: > 100 µM
TGI [2]: > 100 µM
TGI [3]: > 100 µM
TGI [4]: > 100 µM
TGI [5]: > 100 µM
TGI [6]: > 100 µM
TGI [7]: > 100 µM
TGI [8]: > 100 µM
TGI [9]: > 100 µM
TGI [10]: > 100 µM
TGI [11]: > 100 µM
TGI [12]: > 100 µM
TGI [13]: > 100 µM
TGI [14]: > 100 µM
TGI [15]: > 100 µM
TGI [16]: > 100 µM
TGI [17]: > 100 µM
TGI [18]: > 100 µM
TGI [19]: > 100 µM
TGI [20]: > 100 µM
TGI [21]: > 100 µM
TGI [22]: > 100 µM
TGI [23]: > 100 µM
TGI [24]: > 100 µM
TGI [25]: > 100 µM
TGI [26]: > 100 µM
TGI [27]: > 100 µM
TGI [28]: > 100 µM
TGI [29]: > 100 µM
TGI [30]: > 100 µM
TGI [31]: > 100 µM
TGI [32]: > 100 µM
TGI [33]: > 100 µM
TGI [34]: > 100 µM
TGI [35]: > 100 µM
TGI [36]: > 100 µM
TGI [37]: > 100 µM
TGI [38]: > 100 µM
TGI [39]: > 100 µM
TGI [40]: > 100 µM
TGI [41]: > 100 µM
TGI [42]: > 100 µM
TGI [43]: > 100 µM
TGI [44]: > 100 µM
TGI [45]: > 100 µM
TGI [46]: > 100 µM
TGI [47]: > 100 µM
TGI [48]: > 100 µM
TGI [49]: > 100 µM
TGI [50]: > 100 µM
TGI [51]: > 100 µM
TGI [52]: > 100 µM
TGI [53]: > 100 µM
TGI [54]: > 100 µM
TGI [55]: > 100 µM

CCN=C1Nc2ccccc2-n2c(nn3nc4ccccc4c23)N1CC
TGI [1]: > 100 µM
TGI [2]: > 100 µM
TGI [3]: > 100 µM
TGI [4]: > 100 µM
TGI [5]: > 100 µM
TGI [6]: > 100 µM
TGI [7]: > 100 µM
TGI [8]: > 100 µM
TGI [10]: > 100 µM
TGI [11]: > 100 µM
TGI [12]: > 100 µM
TGI [13]: > 100 µM
TGI [15]: > 100 µM
TGI [16]: > 100 µM
TGI [17]: > 100 µM
TGI [18]: > 100 µM
TGI [56]: > 100 µM
TGI [19]: > 100 µM
TGI [20]: > 100 µM
TGI [21]: > 100 µM
TGI [23]: > 100 µM
TGI [24]: > 100 µM
TGI [25]: > 100 µM
TGI [26]: > 100 µM
TGI [27]: > 100 µM
TGI [28]: > 100 µM
TGI [29]: > 100 µM
TGI [32]: > 100 µM
TGI [34]: > 100 µM
TGI [35]: > 100 µM
TGI [36]: > 100 µM
TGI [37]: > 100 µM
TGI [38]: > 100 µM
TGI [39]: > 100 µM
TGI [40]: > 100 µM
TGI [57]: > 100 µM
TGI [41]: > 100 µM
TGI [42]: > 100 µM
TGI [44]: > 100 µM
TGI [45]: > 100 µM
TGI [46]: > 100 µM
TGI [47]: > 100 µM
TGI [48]: > 100 µM
TGI [49]: > 100 µM
TGI [51]: > 100 µM
TGI [53]: > 100 µM
TGI [54]: > 100 µM
TGI [55]: > 100 µM

O=c1[nH]cnc2c(COCCCO)c[nH]c12
TGI [1]: > 100 µM
TGI [2]: > 100 µM
TGI [3]: > 100 µM
TGI [5]: > 100 µM
TGI [6]: > 100 µM
TGI [7]: > 100 µM
TGI [8]: > 100 µM
TGI [9]: > 100 µM
TGI [10]: > 100 µM
TGI [11]: > 100 µM
TGI [12]: > 100 µM
TGI [13]: > 100 µM
TGI [14]: > 100 µM
TGI [15]: > 100 µM
TGI [16]: > 100 µM
TGI [17]: > 100 µM
TGI [18]: > 100 µM
TGI [19]: > 100 µM
TGI [20]: > 100 µM
TGI [21]: > 100 µM
TGI [22]: > 100 µM
TGI [23]: > 100 µM
TGI [24]: > 100 µM
TGI [25]: > 100 µM
TGI [26]: > 100 µM
TGI [27]: > 100 µM
TGI [28]: > 100 µM
TGI [29]: > 100 µM
TGI [30]: > 100 µM
TGI [32]: > 100 µM
TGI [33]: > 100 µM
TGI [34]: > 100 µM
TGI [35]: > 100 µM
TGI [37]: > 100 µM
TGI [38]: > 100 µM
TGI [39]: > 100 µM
TGI [40]: > 100 µM
TGI [41]: > 100 µM
TGI [43]: > 100 µM
TGI [44]: > 100 µM
TGI [45]: > 100 µM
TGI [46]: > 100 µM
TGI [47]: > 100 µM
TGI [48]: > 100 µM
TGI [49]: > 100 µM
TGI [50]: > 100 µM
TGI [51]: > 100 µM
TGI [52]: > 100 µM
TGI [54]: > 100 µM
TGI [55]: > 100 µM

COc1ccc(NCc2cc(OC)c(OC)c(OC)c2)cc1
GI50 [1]: 0.338 µM and 1.16 µM
TGI [1]: > 100 µM
TGI [2]: > 100 µM
TGI [58]: > 100 µM
TGI [3]: > 100 µM
TGI [59]: > 100 µM
GI50 [4]: 0.414 µM and 4.04 µM
TGI [4]: 6.38 µM and 29.1 µM
TGI [60]: 2.55 µM
TGI [5]: > 39.7 µM and 36.5 µM
TGI [6]: > 100 µM
TGI [7]: > 100 µM
TGI [61]: > 100 µM
TGI [8]: > 100 µM
TGI [62]: > 100 µM
GI50 [9]: 2.79 µM
TGI [9]: > 100 µM
TGI [63]: > 47.8 µM
TGI [10]: > 100 µM
TGI [11]: > 100 µM
TGI [64]: > 17.1 µM
GI50 [12]: 0.713 µM and 1.84 µM
TGI [12]: > 100 µM
GI50 [13]: 0.513 µM and 0.262 µM
TGI [13]: > 100 µM
GI50 [14]: 0.328 µM
TGI [14]: > 100 µM
TGI [16]: > 32.7 µM and 31.3 µM
TGI [18]: > 100 µM
TGI [56]: > 70.6 µM and 17.3 µM
TGI [19]: > 74.1 µM
TGI [22]: > 100 µM and 22.5 µM
TGI [23]: 31.4 µM
GI50 [24]: > 91.7 µM and 20.2 µM
TGI [24]: > 100 µM
GI50 [25]: 0.308 µM
TGI [25]: > 100 µM
GI50 [26]: > 43.3 µM
TGI [26]: > 100 µM
TGI [27]: > 100 µM
TGI [28]: > 100 µM
TGI [29]: > 100 µM
TGI [30]: > 100 µM
TGI [31]: 2.73 µM and 3.31 µM
TGI [32]: > 29 µM
TGI [33]: > 100 µM
TGI [34]: 0.784 µM and 2.83 µM
TGI [35]: 7.62 µM
TGI [36]: 2.22 µM and 0.929 µM
GI50 [37]: 0.252 µM
TGI [37]: 32.7 µM and > 74.5 µM
GI50 [38]: 0.0444 µM and 0.114 µM
TGI [38]: > 100 µM
TGI [39]: > 100 µM
TGI [40]: > 72 µM and 34.1 µM
TGI [57]: > 100 µM
TGI [41]: 0.833 µM and 0.654 µM
TGI [42]: > 32.7 µM and 37.1 µM
GI50 [43]: 0.404 µM and 1.04 µM
TGI [43]: > 100 µM
GI50 [44]: 0.198 µM
TGI [45]: > 58.9 µM and 15.1 µM
TGI [46]: > 100 µM
TGI [47]: > 100 µM and 12.9 µM
TGI [48]: > 100 µM
GI50 [49]: 0.281 µM and 0.855 µM
TGI [49]: > 100 µM
TGI [50]: > 100 µM
TGI [65]: > 100 µM
TGI [51]: > 100 µM
TGI [66]: > 100 µM
TGI [52]: 1.17 µM and 2.89 µM
TGI [53]: > 100 µM
TGI [54]: > 100 µM and 15.4 µM
TGI [55]: > 100 µM and 19.4 µM

Source: PubChem BioAssay (NCI)
